The values that follow come from ChEMBL document CHEMBL3352715, “Synthesis of new verapamil analogues and their evaluation in combination with rifampicin against Mycobacterium tuberculosis and molecular docking studies in the binding site of efflux protein Rv1258c” (2014).

Assay [1] deals with Mycobacterium tuberculosis. Briefly: Inhibition of multidrug resistance efflux pump Rv1258c in Mycobacterium tuberculosis H37Rv assessed as reduction in rifampicin MIC99 by MABA method.
The subject of assay [2] is Mycobacterium tuberculosis. Briefly: Inhibition of multidrug resistance efflux pump Rv1258c in Mycobacterium tuberculosis H37Rv assessed as potentiation of rifampicin-induced antimycobacterial activity by MABA method based Chequerboard synergy assay.
In assay [3] the test system is Mycobacterium tuberculosis. The assay can be described thus: Inhibition of multidrug resistance efflux pump Rv1258c in Mycobacterium tuberculosis H37Rv assessed as rifampicin MIC99 by MABA method.

As for `COc1ccc(CCN(CCCC(C#N)(c2ccc(OC)c(OC)c2)C(C)C)C2CC2)cc1OC` (centres undefined), the “fold change (FC)” value in assay [1] was 2. In addition, the “fractional inhibitory concentration index (FICI)” value in assay [2] is 0.75. Also, in assay [3], the MIC99 was determined as 4.2 nM.

`CCN(CCCC(C#N)(c1ccc(OC)c(OC)c1)C(C)C)CCc1ccc(OC)c(OC)c1` (centres undefined): the “fractional inhibitory concentration index (FICI)” value in assay [2] is 1. In assay [3], the MIC99 was 8.3 nM.

Consider `CCCN(CCCC(C#N)(c1ccc(OC)c(OC)c1)C(C)C)CCc1ccc(OC)c(OC)c1` (centres undefined), for which the “fractional inhibitory concentration index (FICI)” value in assay [2] is given as 0.78. Further, in assay [3], the MIC99 was 8.3 nM.

Turning to `COc1ccc(CCN(CCCC(C#N)(c2ccc(OC)c(OC)c2)C(C)C)Cc2ccccc2)cc1OC` (centres undefined), in assay [1], the “fold change (FC)” value was found to be 4. The “fractional inhibitory concentration index (FICI)” value in assay [2] came out at 0.3. Further, the MIC99 in assay [3] is 2.1 nM.

For `COc1ccc(N(C)CCCC(C#N)(c2ccc(OC)c(OC)c2)C(C)C)cc1OC` (centres undefined), the MIC99 in assay [3] turned out to be 8.3 nM.

Take `COc1ccc(CN(C)CCCC(C#N)(c2ccc(OC)c(OC)c2)C(C)C)cc1OC` (centres undefined): the MIC99 in assay [3] came to 8.3 nM.

For `COc1ccc(C(C#N)(CCCN2CCCCC2)C(C)C)cc1OC` (centres undefined), the “fold change (FC)” value in assay [1] was found to be 2. Further, the “fractional inhibitory concentration index (FICI)” value in assay [2] came out at 1. In addition, the MIC99 in assay [3] was found to be 4.2 nM.

For `COc1ccc(C(C#N)(CCCN2CCOCC2)C(C)C)cc1OC` (centres undefined), the “fractional inhibitory concentration index (FICI)” value in assay [2] came out at 1.5. For the same compound, the MIC99 in assay [3] was found to be 8.3 nM.

`COc1ccc(C(C#N)(CCCN2CCC(O)CC2)C(C)C)cc1OC` (centres undefined): in assay [2], the “fractional inhibitory concentration index (FICI)” value turned out to be 1.5. Further, the MIC99 in assay [3] stood at 8.3 nM.

Regarding `COc1ccc(C(C#N)(CCCN2CCC(N3CCCCC3)CC2)C(C)C)cc1OC` (centres undefined), in assay [1], the “fold change (FC)” value is on record as 2. In assay [2], the “fractional inhibitory concentration index (FICI)” value is reported as 1. In assay [3], the MIC99 was 4.2 nM.

With `COc1ccc(C(C#N)(CCCN2CCC(O)(c3ccccc3)CC2)C(C)C)cc1OC` (centres undefined), the “fold change (FC)” value in assay [1] is reported as 2. Further, the “fractional inhibitory concentration index (FICI)” value in assay [2] is listed as 1. Moreover, in assay [3], the MIC99 came out at 4.2 nM.

`COc1ccc(C(C#N)(CCCN2CCN(c3ccccc3)CC2)C(C)C)cc1OC` (centres undefined): the “fold change (FC)” value in assay [1] stood at 2. The “fractional inhibitory concentration index (FICI)” value in assay [2] is listed as 0.75. In addition, the MIC99 in assay [3] was found to be 4.2 nM.

With `COc1ccc(C(C#N)(CCCN2CCN(c3ccccn3)CC2)C(C)C)cc1OC` (centres undefined), the “fold change (FC)” value in assay [1] amounted to 4. For the same compound, in assay [2], the “fractional inhibitory concentration index (FICI)” value is 0.75. Further, in assay [3], the MIC99 was determined as 2.1 nM.

With `COc1ccc(C(C#N)(CCCN2CCN(c3ccccc3F)CC2)C(C)C)cc1OC` (centres undefined), the “fractional inhibitory concentration index (FICI)” value in assay [2] amounted to 1.5. The MIC99 in assay [3] came out at 8.3 nM.

Take `COc1ccc(CCN(C)CCCC(C#N)c2ccc(OC)c(OC)c2)cc1OC` (centres undefined): the “fold change (FC)” value in assay [1] is 2. In addition, in assay [2], the “fractional inhibitory concentration index (FICI)” value came to 1. Also, the MIC99 in assay [3] turned out to be 4.2 nM.

On to `COc1ccc(CCN(C)CCCC(C)(C#N)c2ccc(OC)c(OC)c2)cc1OC` (centres undefined), for which, in assay [1], the “fold change (FC)” value is recorded as 2. For the same compound, the “fractional inhibitory concentration index (FICI)” value in assay [2] worked out at 1. For the same compound, the MIC99 in assay [3] turned out to be 4.2 nM.

For `CCC(C#N)(CCCN(C)CCc1ccc(OC)c(OC)c1)c1ccc(OC)c(OC)c1` (centres undefined), in assay [1], the “fold change (FC)” value is given as 4. For the same compound, the “fractional inhibitory concentration index (FICI)” value in assay [2] came to 0.75. Also, the MIC99 in assay [3] was found to be 2.1 nM.

In the case of `CCCC(C#N)(CCCN(C)CCc1ccc(OC)c(OC)c1)c1ccc(OC)c(OC)c1` (centres undefined), in assay [1], the “fold change (FC)” value is 4. The “fractional inhibitory concentration index (FICI)” value in assay [2] is reported as 0.75. Further, in assay [3], the MIC99 worked out at 2.1 nM.

For the compound `COc1ccc(CCN(C)CCCC(C#N)(c2ccc(OC)c(OC)c2)C2CCCC2)cc1OC` (centres undefined), in assay [1], the “fold change (FC)” value worked out at 2. In assay [2], the “fractional inhibitory concentration index (FICI)” value is given as 1. For the same compound, the MIC99 in assay [3] is 4.2 nM.

`COc1ccc(CCN(C)CCCC(C#N)(c2ccc(OC)c(OC)c2)C2CCCCC2)cc1OC` (centres undefined): in assay [1], the “fold change (FC)” value is listed as 4. In addition, the “fractional inhibitory concentration index (FICI)” value in assay [2] is reported as 1.25. Besides, in assay [3], the MIC99 was determined as 2.1 nM.

`COc1ccc(CCNCCCC(C#N)(c2ccc(OC)c(OC)c2)C(C)C)cc1OC` (centres undefined) [NORVERAPAMIL]: in assay [1], the “fold change (FC)” value is given as 2. The “fractional inhibitory concentration index (FICI)” value in assay [2] turned out to be 0.56. Also, in assay [3], the MIC99 was determined as 4.2 nM.
